# In article PMC5547380, “Molecular cloning and characterization of protein disulfide isomerase of Brugia malayi, a human lymphatic filarial parasite” (EXCLI Journal, 2017):
# Read-outs that look alike come from different tables or passages of the source.
# Molecular target: T1, Brugia malayi Protein disulfide isomerase (BmPDI) (Brugia malayi, UniProt A0A1S0S010)
# T1 construct: gene pdi; recombinant 6XHis-tagged BmPDI expressed in E. coli
# Assay: refolding of reduced denatured RNase A, RNA hydrolysis followed by absorbance at […] nm
# Format: biochemical
IC50 (read-out: IC50) [µM],Structure (SMILES),IC50 [µM]
17.6,O=C1C=CC(=C(c2ccc(O)cc2)c2ccc(O)cc2)C=C1 [aurin],
,NC[C@H]1O[C@H](O[C@H]2[C@H](O[C@@H]3O[C@H](CO)[C@@H](O)[C@H]3O)[C@@H](O)[C@H](N)C[C@@H]2N)[C@H](N)[C@@H](O)[C@@H]1O [ribostamycin],35.6
74.2,Cc1ccc(C(=O)Nc2ccc(S(=O)(=O)O)c3cc(S(=O)(=O)O)cc(S(=O)(=O)O)c23)cc1NC(=O)c1cccc(NC(=O)Nc2cccc(C(=O)Nc3cc(C(=O)Nc4ccc(S(=O)(=O)O)c5cc(S(=O)(=O)O)cc(S(=O)(=O)O)c45)ccc3C)c2)c1 [suramin],
